We go through 13 compounds from patent US11814393B2, “Substituted guanidine compounds” (UBE CORPORATION, priority 2016, dated 2023).

In one series the target is T1, Human VAP-1 enzyme (Homo sapiens, UniProt Q16853).
T1 construct: purchased R&D Systems, Inc
T1 sequence (Q16853 27-763 limits assumed): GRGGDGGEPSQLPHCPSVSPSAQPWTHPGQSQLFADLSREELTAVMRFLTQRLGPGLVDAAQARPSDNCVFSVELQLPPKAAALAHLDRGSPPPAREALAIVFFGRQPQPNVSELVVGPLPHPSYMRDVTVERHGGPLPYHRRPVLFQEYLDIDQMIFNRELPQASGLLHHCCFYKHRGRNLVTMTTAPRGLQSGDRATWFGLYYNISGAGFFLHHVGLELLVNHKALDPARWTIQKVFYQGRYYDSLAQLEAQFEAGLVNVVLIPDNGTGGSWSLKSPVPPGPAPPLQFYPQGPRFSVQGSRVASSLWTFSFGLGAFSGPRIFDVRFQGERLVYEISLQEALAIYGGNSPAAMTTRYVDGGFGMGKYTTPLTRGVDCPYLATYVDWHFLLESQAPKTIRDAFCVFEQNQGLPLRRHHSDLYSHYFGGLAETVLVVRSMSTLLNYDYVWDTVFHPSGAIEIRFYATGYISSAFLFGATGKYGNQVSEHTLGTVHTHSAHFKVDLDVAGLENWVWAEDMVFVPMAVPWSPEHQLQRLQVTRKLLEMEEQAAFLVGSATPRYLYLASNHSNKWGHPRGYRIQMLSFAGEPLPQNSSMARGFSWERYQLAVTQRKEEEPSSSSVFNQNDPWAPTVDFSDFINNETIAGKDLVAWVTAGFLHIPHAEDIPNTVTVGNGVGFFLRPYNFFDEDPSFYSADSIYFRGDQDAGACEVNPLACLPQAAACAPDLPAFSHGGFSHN
Nature of the series: Human VAP-1 enzyme inhibition test. The format is biochemical. The note with it: compound 30 nM; 14C-benzylamine 100 μM, 37° C., 1 hour; read-out: inhibition ratio. As to the method:
Human VAP-1 Enzyme Inhibition Test
This test was conducted by modifying the method of P. H. Yu et al. (Diabetologia 40 1243 (1997)). Human VAP-1 enzyme (R&D Systems, Inc.) was pre-incubated in a 96-well plate with the compound dissolved in dimethylsulfoxide at room temperature for 20 minutes. Next, in a solution to the final volume of 200 μL, the enzyme reaction solution was incubated with ^14C-benzylamine (final concentration 100 μM) at 37° C. for 1 hour. The reaction was terminated by the addition of 100 μL of 2 M citric acid solution to the reaction solution. The oxidative product was extracted using a toluene/ethyl acetate mixture and the radioactivity was measured with a liquid scintillation counter. The inhibition ratio of the compound was calculated using the following equation. Inhibition ratio={1−[VAP-1 enzyme activity after treatment with the compound]/[VAP-1 enzyme activity in the presence of dimethylsulfoxide alone without the compound]}×100 [Math. 1]

A further series has as its target T2, rat plasma VAP-1 (Rattus norvegicus, UniProt O08590).
T2 construct: The blood was centrifuged at 14000 rpm for 10 minutes to get plasma; from tissue; host or cells: plasma of SD male rats (ex vivo, after oral dosing)
T2 sequence (O08590 28-763 limits assumed): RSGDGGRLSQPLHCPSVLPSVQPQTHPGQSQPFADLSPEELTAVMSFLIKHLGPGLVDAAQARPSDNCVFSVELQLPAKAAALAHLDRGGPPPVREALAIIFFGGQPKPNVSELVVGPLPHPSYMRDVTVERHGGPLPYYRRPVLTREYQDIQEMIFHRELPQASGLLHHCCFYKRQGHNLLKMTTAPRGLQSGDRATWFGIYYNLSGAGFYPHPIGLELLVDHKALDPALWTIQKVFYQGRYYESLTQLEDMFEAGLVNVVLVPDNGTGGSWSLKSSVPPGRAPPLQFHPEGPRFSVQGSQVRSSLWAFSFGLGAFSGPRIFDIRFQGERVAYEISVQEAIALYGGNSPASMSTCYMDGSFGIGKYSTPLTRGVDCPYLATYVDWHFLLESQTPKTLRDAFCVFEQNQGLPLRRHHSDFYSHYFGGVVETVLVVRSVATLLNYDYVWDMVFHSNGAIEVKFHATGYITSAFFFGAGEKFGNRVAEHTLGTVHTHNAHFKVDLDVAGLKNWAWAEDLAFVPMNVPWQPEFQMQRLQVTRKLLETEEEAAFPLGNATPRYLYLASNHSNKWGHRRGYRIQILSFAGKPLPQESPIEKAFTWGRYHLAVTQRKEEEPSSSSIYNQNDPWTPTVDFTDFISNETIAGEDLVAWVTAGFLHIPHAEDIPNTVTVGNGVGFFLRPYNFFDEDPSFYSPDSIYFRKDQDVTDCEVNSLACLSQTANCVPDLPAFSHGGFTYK
Nature of the series: (Ex vivo) rat plasma VAP-1 inhibition test after oral administration of the compound. The series is classed as in vivo. As to conditions: 3 hours after oral administration, SD male rats, non-fasting, read-out: inhibition ratio (plasma VAP-1 activity). How it is done:
(Ex Vivo) Rat Plasma VAP-1 Inhibition Test after Oral Administration of the Compound
The compound was orally administered (0.3-10 mg/kg) to 7-12 week old SD male rats in the non-fasting state. Under anesthesia, the blood was collected in heparin tubes from the jugular vein before the administration and 3, 8 and 24 hours after the administration. The blood was centrifuged at 14000 rpm for 10 minutes to get plasma. The VAP-1 enzyme activity in the plasma was measured by radiochemical enzyme assay.
The radiochemical enzyme assay was conducted by modifying the method of P. H. Yu et al. (Diabetologia 40 1243 (1997)). ^14C-benzylamine (2.5 μM) was added to the obtained plasma, and was incubated at 37° C. for 3 hours. The reaction was terminated by the addition of 100 μL of 2 M citric acid solution to the reaction solution. The oxidative product was extracted using a toluene/ethyl acetate mixture and the radioactivity was measured with a liquid scintillation counter. The inhibition ratio of the compound was calculated using the following equation. Inhibition ratio={1−[Plasma VAP-1 activity after administration of the compound]/[Plasma VAP-1 activity before administration]}×100 [Math. 4]

Series [1] in a line: Rat pharmacokinetic (PK) study (concentration of compound in plasma after oral administration). The format is in vivo, SD rats. The note with it: dose 3 mg/kg. How it is done: Rat Pharmacokinetic (PK) Study (Concentration of Compound in Plasma after Oral Administration)
Seven to eight week old SD rats (weighing 180 to 250 g) were orally administered with a suspension of the compound in 0.5 W/V % methylcellulose 400 solution. Under anesthesia, the blood was collected from the jugular vein in EDTA tubes at 0.25, 0.5, 1, 2, 4, 6, 8 and 24 hours after the administration of the compound. The blood was centrifuged at 4° C. and 6000 g for 3 minutes to give plasma. Acetonitrile was added to the plasma, and the mixture was stirred with a shaker at 750 rpm for 3 minutes and was deproteinized by centrifugation at 3700 rpm for 2 minutes. The obtained sample was analyzed by LC/MS under the following conditions.
The concentration of the compound in the plasma at each blood sampling time was determined by an internal standard method, and AUC all (Area Under Curve) was calculated by a trapezoidal method.
The following LC and MS systems were used for measurement.
LC: CBM 30 series manufactured by Shimadzu Corporation
Column: Phenomenex Kinetex C18 (50×2.1 mm, 2.6 μm)
Column temperature: 40° C.
Mobile phase A: 0.1% aqueous formic acid solution, mobile phase B: 0.1% formic acid, 50% acetonitrile/methanol mixture
MS: 3200 manufactured by SCIEX

Consider `N=C(N)NC(=O)OCc1cccc(-c2cnc(N3CC(F)C3)c(F)c2)c1F` [Example 10, 2-Fluoro-3-[5-fluoro-6-(3-fluoroazetidin-1-yl)pyridin-3-yl]benzyl carbamimidoylcarbamate], for which the inhibition at 0.03 µM at Human VAP-1 enzyme was at least 50%. Further, the inhibition in vivo at 0.3 mg/kg at rat plasma VAP-1 is at least 50%.

In the case of `CC1(C)CN(c2ncc(-c3cccc(COC(=O)NC(=N)N)c3F)cc2F)C1` [Example 13, 3-[6-(3,3-Dimethylazetidin-1-yl)-5-fluoropyridin-3-yl]-2-fluorobenzyl carbamimidoylcarbamate], at Human VAP-1 enzyme, the inhibition at 0.03 µM was at least 50%. For the same compound, the inhibition in vivo at 0.3 mg/kg on rat plasma VAP-1 was at least 50%.

On to `[2H]C([2H])([2H])OC1CN(c2ncc(-c3cccc(COC(=O)NC(=N)N)c3F)cc2F)C1` [Example 2, 2-Fluoro-3-{5-fluoro-6-[3-(methoxy-d3)azetidin-1-yl]pyridin-3-yl}benzyl carbamimidoylcarbamate], for which, at Human VAP-1 enzyme, the inhibition at 0.03 µM is at least 50%. On rat plasma VAP-1, the inhibition in vivo at 0.3 mg/kg is at least 50%.

For `N=C(N)NC(=O)OCc1cccc(-c2cnc(N3CC4(COC4)C3)c(F)c2)c1F` [Example 16, 2-Fluoro-3-[5-fluoro-6-(2-oxa-6-azaspiro[3.3]heptan-6-yl)pyridin-3-yl]benzyl carbamimidoylcarbamate], the inhibition at 0.03 µM on Human VAP-1 enzyme was at least 50%. Besides, the inhibition in vivo at 0.3 mg/kg on rat plasma VAP-1 was at least 50%. The “amount of metabolites found in the blood” value in series [1] is reported as “small”.

Regarding `N=C(N)NC(=O)OCc1cccc(-c2cnc(N3CC(O)C3)c(F)c2)c1F` [Example 8, 2-Fluoro-3-[5-fluoro-6-(3-hydroxyazetidin-1-yl)pyridin-3-yl]benzyl carbamimidoylcarbamate], at Human VAP-1 enzyme, the inhibition at 0.03 µM was at least 50%. In addition, the inhibition in vivo at 0.3 mg/kg at rat plasma VAP-1 was at least 50%. Besides, the “amount of metabolites found in the blood” value in series [1] was “small”.

`COC1CN(c2ncc(-c3cccc(COC(=O)NC(=N)N)c3F)cc2F)C1` [Example 1, 2-Fluoro-3-[5-fluoro-6-(3-methoxyazetidin-1-yl)pyridin-3-yl]benzyl carbamimidoylcarbamate]: the inhibition at 0.03 µM on Human VAP-1 enzyme is at least 50%. In addition, on rat plasma VAP-1, the inhibition in vivo at 0.3 mg/kg was at least 50%.

For the compound `N=C(N)NC(=O)OCc1cccc(-c2cnc(N3CCC3)c(F)c2)c1F` [Example 9, 3-[6-(Azetidin-1-yl)-5-fluoropyridin-3-yl]-2-fluorobenzyl carbamimidoylcarbamate], on Human VAP-1 enzyme, the inhibition at 0.03 µM was at least 50%. Also, the inhibition in vivo at 0.3 mg/kg at rat plasma VAP-1 was at least 50%.

As to `N=C(N)NC(=O)OCc1cccc(-c2cnc(N3CC(OCCF)C3)c(F)c2)c1F` [Example 4, 2-Fluoro-3-{5-fluoro-6-[3-(2-fluoroethoxy)azetidin-1-yl]pyridin-3-yl}benzyl carbamimidoylcarbamate], the inhibition at 0.03 µM on Human VAP-1 enzyme is at least 50%. In addition, the inhibition in vivo at 0.3 mg/kg on rat plasma VAP-1 was at least 50%.

Regarding `CCOC1CN(c2ncc(-c3cccc(COC(=O)NC(=N)N)c3F)cc2F)C1` [Example 3, 3-[6-(3-Ethoxyazetidin-1-yl)-5-fluoropyridin-3-yl]-2-fluorobenzyl carbamimidoylcarbamate], the inhibition at 0.03 µM on Human VAP-1 enzyme was at least 50%. Further, at rat plasma VAP-1, the inhibition in vivo at 0.3 mg/kg was at least 50%.

`CC(C)OC1CN(c2ncc(-c3cccc(COC(=O)NC(=N)N)c3F)cc2F)C1` [Example 6, 2-Fluoro-3-[5-fluoro-6-(3-isopropoxyazetidin-1-yl)pyridin-3-yl]benzyl carbamimidoylcarbamate]: the inhibition at 0.03 µM at Human VAP-1 enzyme is at least 50%. Further, the inhibition in vivo at 0.3 mg/kg at rat plasma VAP-1 was at least 50%.

With `N=C(N)NC(=O)OCc1cccc(-c2cnc(N3CC(F)(F)C3)c(F)c2)c1F` [Example 11, 3-[6-(3,3-Difluoroazetidin-1-yl)-5-fluoropyridin-3-yl]-2-fluorobenzyl carbamimidoylcarbamate], the inhibition at 0.03 µM on Human VAP-1 enzyme was at least 50%. Besides, at rat plasma VAP-1, the inhibition in vivo at 0.3 mg/kg is at least 50%.

In the case of `CC1(O)CN(c2ncc(-c3cccc(COC(=O)NC(=N)N)c3F)cc2F)C1` [Example 15, 2-Fluoro-3-[5-fluoro-6-(3-hydroxy-3-methylazetidin-1-yl)pyridin-3-yl]benzyl carbamimidoylcarbamate], the inhibition at 0.03 µM at Human VAP-1 enzyme is at least 50%. In addition, the inhibition in vivo at 0.3 mg/kg at rat plasma VAP-1 is at least 50%. In addition, in series [1], the “amount of metabolites found in the blood” value was “small”.

For `CC1CN(c2ncc(-c3cccc(COC(=O)NC(=N)N)c3F)cc2F)C1` [Example 12, 2-Fluoro-3-[5-fluoro-6-(3-methylazetidin-1-yl)pyridin-3-yl]benzyl carbamimidoylcarbamate], the inhibition at 0.03 µM on Human VAP-1 enzyme was at least 50%. For the same compound, at rat plasma VAP-1, the inhibition in vivo at 0.3 mg/kg is at least 50%.
